For one experiment, the target named is Mcl-1. Conditions: known Mcl-1 inhibitor; cited from earlier work.
Another experiment has as its system A2780 cells. Kind of experiment: MTT test on suppressing cancer cells, A2780. It is filed as cell-based. As to conditions: Homo sapiens, 24h. As to the method: (§1) (Nunc). To check the interference effects of candidate membranes. […]
(§2) Microplate Spectrophotometer with excitation wavelength (Boster). being 432 nm. The IC50 calculations were performed by Graphpad Prism 5 (Graphpad software, Inc.). Key residues discovery
(§3) Tests of candidate compounds on suppressing In the present study, key residues involved in the […]
(§4) by using site-directed mutagenesis and FPA competition
(§5) Cell lines including A2780, MCF-7 and SMMC- assays in combination. According to the results of pairwise 7721 were cultured to the logarithmic growth phase per-residue free energy decomposition, the residues in 3 ml complete media (RPMI1640 plus 10%FBS), contributing a lot to the binding of PUMA/Comp8 to 4 Mcl-1 were subjected to site-directed mutagenesis. By respectively. After adjusting their concentrations to 5×10 reference to the primers listed in Supplementary Table5, cells/ml with complete media, these cell lines were plated overlapping extension PCR was conducted to realize into 96-well, transparent, flat-bottom plates (150 μl/well), site-directed mutagenesis. After verified by gene each point was prepared in three replicates. The density sequencing, the individually mutated PCR products were of cultured cell lines was evaluated by MTT tests. When cloned into the expressing vector pET-43.1a (+). […]
(Tetrazolium dyes change colour on reduction, which living cells bring about.)

The test system of the next experiment is MCF-7 cells. Kind of experiment: MTT test on suppressing cancer cells, MCF-7. It is filed as cell-based. As to conditions: Homo sapiens, MCF7, 24h. Here is the method:
as §1, §2, §3, §4, §5

For a further experiment, the system named is SMMC-7721 cells. Kind of experiment: MTT test on suppressing cancer cells, SMMC-7721. As to conditions: Homo sapiens, 24h. In kind it is cell-based. Here is the method:
as §1, §2, §3, §4, §5

In experiment [1] the test system is A2780, MCF-7 and SMMC-7721. Kind of experiment: MTT test, three cancer cell lines together. It is filed as cell-based. As to conditions: on A2780, MCF-7 and SMMC-7721, range over the three lines. As to the method:
as §1, §2, §3, §4, §5

The test system of experiment [2] is DLD-1 cells infected with Ad-PUMA. Kind of experiment: PUMA-dependent apoptosis of DLD-1 cells infected with Ad-PUMA (Caspase-Glo 3/7). It is filed as cell-based. As to conditions: Homo sapiens; DLD-1, Ad-PUMA, 48h; read-out: EC50 (action on apoptosis). Here is the method:
Tests of candidate compounds on blocking Synthesis of compound 8
PUMA-dependent apoptosis To a suspension of rhodanine (7.57 mmol) in dry Construction and validation of recombinant ethanol (10 mL), 4-Biphentlaldehyde (11.3 mmol), N-(2-Adenovirus By taking pHBAd-MCMV-GFP (Hanbio) as hydroxyethyl) piperazine (11.3 mmol), and glacial acetic vector, the construction and purification of Adenoviruses acid (0.75 mmol) were added and the resulting mixture overexpressing PUMA and PUMA-∆BH3 (PUMA was further stirred under reflux for 5-6 h. The reaction was without the BH3 domain) were performed according to completed and then cooled in an ice bath. The precipitated former reports. […]
various multiplicity of infection (MOI, 6 points, from 0 The crystal structure of Comp8 was solved by X-ray to 160) in 96-well, white, flat-bottom plates (Nunc). […] Shake gently and record the luminescence of each well on TECAN Infinite M1000 S.Y.Z., H.C., J.N.L and J.Y.L. conceived the project.
Microplate Spectrophotometer. The data were analyzed J.Y.L. and Z.T. designed the experiment. J.Y.L., Z.T., by Graphpad Prism and suitable MOI of Ad-PUMA for N.Z., X.Y.L. and C.Y.L. performed the experiments and following cell infection can be determined in this process. prepared the manuscript. […]
added to make the final compound concentrations range 2. […] The results were detected by flexible docking. […]

In general, Ki refers to the dissociation constant of the complex between target and ligand, obtained from inhibition or displacement. What is called IC50 is the point on the concentration scale where inhibition reaches its midpoint. By EC50 is commonly meant the midpoint of the concentration-response curve.

Consider `O=C(O)CSc1cc(NS(=O)(=O)c2ccc(Br)cc2)c2ccccc2c1O` [UMI-77], for which the Ki at Mcl-1 is 0.49 µM.

For the compound `CC1(C)CCC(c2ccc(Cl)cc2)=C(CN2CCN(c3ccc(C(=O)NS(=O)(=O)c4ccc(N[C@H](CCN5CCOCC5)CSc5ccccc5)c(S(=O)(=O)C(F)(F)F)c4)cc3)CC2)C1` [ABT-263, reference compound], the IC50 in the experiment with A2780 cells was 21.8 ± 1.85 µM; in the experiment on MCF-7 cells, 32 ± 3.48 µM; in the experiment with SMMC-7721 cells, 29.5 ± 1.36 µM; in experiment [1], 20 to 50 µM. The EC50 in experiment [2] worked out at 2.75 ± 0.24 µM.

The values are drawn from PMC5589576, “Targeting the apoptotic Mcl-1-PUMA interface with a dual-acting compound” (Oncotarget, 2017).
